Results on eight molecules are retold here after patent publication US4789731A, “Semi-synthetic peptide antibiotics” (Bristol-Myers Company, priority 1987, dated 1988).

Holding throughout (format): in vivo
Settings in all cases: mice

For one experiment, the system named is B16 melanoma. Description: Antitumor effect against B16 melanoma, QD 1→9 ip. How it is done: (§1) Antitumor activity of representative compounds of the present invention was determined using in vivo murine transplantable P388 leukemia and B16 melanoma models.
B16 melanoma: male BDF1 mice were implanted with 0.5 ml of a 10% tumor brei intraperitoneally.
(§2) Test materials were dissolved in 0.9% saline containing 10% dimethyl sulfoxide and graded doses of them were administered to mice intraperitoneally 24 hrs after tumor implantation. Two dosing schedules were used for the P388 leukemia experiment: once daily on day 1 through day 3 (QD 1→3); and once daily on day 1 through day 9(QD 1→9). The QD 1→9 schedule was used for the B16 melanoma experiment.
(§3) Antitumor activity is evaluated as the increase in median survival time (MST) of treated (T) and control (C) animals for various dosage regimens expressed as a percentage ratio (T/C %=MST of treated.div.MST of control×100). For both in vivo P388 leukemia and in vivo B16 melanoma models, values for percentage ratios of 125 and above indicate significant antitumor effect.

Experiment [1] has as its system P388 leukemia. Nature of the experiment: Antitumor effect against P388 leukemia, QD 1→9 ip. How it is done:
as §1
(§4) P388 leukemia: female CDF1 and male BDF1 mice were inoculated by intraperitoneal injection of 0.8 ml diluted ascitic fluid containing 10^6 cells.
as §2, §3

Experiment [2] concerns P388 leukemia. Description: Antitumor effect against P388 leukemia, QD 1→3 ip. The method, then:
as §1, §4, §2, §3

For `CCCCCCC/C=C/C=C/C(=O)N[C@H](C(=O)N[C@H]1C[C@@H](O)CCNC(=O)/C=C/[C@H](C)NC1=O)[C@@H](C)O` [BU-2867T A], the “MST (% T/C)” value in the experiment with B16 melanoma (1 mg/kg/day) is reported as 116 % T/C; in the experiment with B16 melanoma (2 mg/kg/day), “Tox”; in the experiment with B16 melanoma (.13 mg/kg/day) it was 97 % T/C; in the experiment on B16 melanoma (.25 mg/kg/day), 100 % T/C; in the experiment with B16 melanoma (.5 mg/kg/day), 113 % T/C; in the experiment with P388 leukemia [1] (0.13 mg/kg/day), 130 % T/C. Besides, the “MST (% T/C)” value with P388 leukemia [1] (0.25 mg/kg/day) is reported as 150 % T/C; in the experiment on P388 leukemia [1] (0.5 mg/kg/day) it was 155 % T/C; in the experiment with P388 leukemia [1] (0.63 mg/kg/day), 110 % T/C; with P388 leukemia [1] (1 mg/kg/day), 190 % T/C; in the experiment with P388 leukemia [1] (2 mg/kg/day), “Tox”; in the experiment on P388 leukemia [2] (1 mg/kg/day), 145 % T/C. Moreover, the entries for the “MST (% T/C)” value in the experiment with P388 leukemia [2] (3 mg/kg/day) and with P388 leukemia [2] (.3 mg/kg/day) were “Tox” and 130 % T/C, respectively.

On to `CCCCCC=CCCC=CC=CC(=O)NC(C(=O)NC1CC(O)CCNC(=O)C=CC(C)NC1=O)C(C)O` (centres unmarked) [BU-2867T B], for which the “MST (% T/C)” value with B16 melanoma (2 mg/kg/day) is on record as “Tox”; in the experiment with P388 leukemia [1] (0.25 mg/kg/day) it was 130 % T/C; with P388 leukemia [1] (0.63 mg/kg/day), 130 % T/C; with P388 leukemia [1] (1 mg/kg/day), 170 % T/C; in the experiment on P388 leukemia [1] (2 mg/kg/day) it was 180 % T/C; in the experiment on P388 leukemia [1] (4 mg/kg/day) it was “Tox”.

Regarding `CCCCCCCCCC=CC=CC(=O)NC(C(=O)NC1CC(O)CCNC(=O)C=CC(C)NC1=O)C(C)O` (centres unmarked) [BU-2867T C], the “MST (% T/C)” value in the experiment with B16 melanoma (4 mg/kg/day) is on record as “Tox”; with P388 leukemia [1] (0.13 mg/kg/day) it was 130 % T/C; in the experiment with P388 leukemia [1] (0.25 mg/kg/day) it was 160 % T/C; in the experiment on P388 leukemia [1] (1 mg/kg/day), 170 % T/C; in the experiment with P388 leukemia [1] (4 mg/kg/day), 65 % T/C; in the experiment on P388 leukemia [2] (10 mg/kg/day), 57 % T/C.

Consider `CCCCCCCCCCCC(=O)N[C@H](C(=O)NC1CC(O)CCNC(=O)/C=C/C(C)NC1=O)[C@@H](C)O` (some centres unmarked) [Example 1, n-Dodecanoyl-III], for which the figures for the “MST (% T/C)” value with P388 leukemia [1] (1 mg/kg/day) and with P388 leukemia [2] (1 mg/kg/day) were 150 % T/C and 130 % T/C, respectively.

`CCCCCCCCCC(=O)N[C@H](C(=O)NC1CC(O)CCNC(=O)/C=C/C(C)NC1=O)[C@@H](C)O` (some centres unmarked) [Example 2, n-Decanoyl-III]: the “MST (% T/C)” value in the experiment with P388 leukemia [2] (10 mg/kg/day) is listed as 64 % T/C.

`CCCCCCCCCCCCCC(=O)N[C@H](C(=O)NC1CC(O)CCNC(=O)/C=C/C(C)NC1=O)[C@@H](C)O` (some centres unmarked) [Example 3, n-Tetradecanoyl-III]: the “MST (% T/C)” value in the experiment with P388 leukemia [1] (1 mg/kg/day) is on record as 150 % T/C; in the experiment with P388 leukemia [1] (2 mg/kg/day), 150 % T/C; in the experiment with P388 leukemia [2] (10 mg/kg/day), 55 % T/C.

Take `CCCCCCCCOc1ccc(C(=O)N[C@H](C(=O)NC2CC(O)CCNC(=O)/C=C/C(C)NC2=O)[C@@H](C)O)cc1` (some centres unmarked) [Example 6, p-n-Octyloxybenzoyl-III]: the “MST (% T/C)” value with P388 leukemia [1] (0.13 mg/kg/day) is 140 % T/C; in the experiment on P388 leukemia [1] (0.25 mg/kg/day) it was 150 % T/C; with P388 leukemia [1] (0.63 mg/kg/day), 120 % T/C; in the experiment on P388 leukemia [1] (1 mg/kg/day) it was “Tox”; with P388 leukemia [2] (1 mg/kg/day), 150 % T/C; with P388 leukemia [2] (3 mg/kg/day), “Tox”.

Take `CCCCCCCCCCCCCCCC(=O)NC(C(=O)NC1CC(O)CCNC(=O)C=CC(C)NC1=O)C(C)O` [Example 10, Palmitoyl-L-Threonyl-II]: the “MST (% T/C)” value with P388 leukemia [2] (1 mg/kg/day) turned out to be 114 % T/C; in the experiment on P388 leukemia [2] (3 mg/kg/day) it was 119 % T/C; in the experiment on P388 leukemia [2] (10 mg/kg/day), 138 % T/C.
